Measured values taken from ChEMBL document CHEMBL1152720, “Discovery and SAR of para-alkylthiophenoxyacetic acids as potent and selective PPARdelta agonists” (Bioorg Med Chem Lett, 2009).

Legend:
[1] = target: T1, Peroxisome proliferator-activated receptor delta (Homo sapiens, UniProt Q03181); experiment: Agonist activity at human PPARdelta; format: functional
T1 sequence (Q03181 whole entry): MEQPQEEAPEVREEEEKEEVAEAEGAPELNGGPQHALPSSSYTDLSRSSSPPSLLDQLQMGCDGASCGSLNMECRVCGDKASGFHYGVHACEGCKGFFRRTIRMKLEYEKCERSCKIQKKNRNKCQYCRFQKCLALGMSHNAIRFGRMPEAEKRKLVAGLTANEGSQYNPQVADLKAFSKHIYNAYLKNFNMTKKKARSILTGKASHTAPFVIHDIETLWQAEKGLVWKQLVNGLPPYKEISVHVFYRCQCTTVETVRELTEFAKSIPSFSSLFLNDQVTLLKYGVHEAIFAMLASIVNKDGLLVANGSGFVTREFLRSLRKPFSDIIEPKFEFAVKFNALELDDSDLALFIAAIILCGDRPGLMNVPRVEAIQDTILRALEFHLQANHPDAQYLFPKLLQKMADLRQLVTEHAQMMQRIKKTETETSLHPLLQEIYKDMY

[2] = target: T2, Peroxisome proliferator-activated receptor gamma (Homo sapiens, UniProt P37231); experiment: Activity at PPARgamma
T2 sequence (P37231 whole entry): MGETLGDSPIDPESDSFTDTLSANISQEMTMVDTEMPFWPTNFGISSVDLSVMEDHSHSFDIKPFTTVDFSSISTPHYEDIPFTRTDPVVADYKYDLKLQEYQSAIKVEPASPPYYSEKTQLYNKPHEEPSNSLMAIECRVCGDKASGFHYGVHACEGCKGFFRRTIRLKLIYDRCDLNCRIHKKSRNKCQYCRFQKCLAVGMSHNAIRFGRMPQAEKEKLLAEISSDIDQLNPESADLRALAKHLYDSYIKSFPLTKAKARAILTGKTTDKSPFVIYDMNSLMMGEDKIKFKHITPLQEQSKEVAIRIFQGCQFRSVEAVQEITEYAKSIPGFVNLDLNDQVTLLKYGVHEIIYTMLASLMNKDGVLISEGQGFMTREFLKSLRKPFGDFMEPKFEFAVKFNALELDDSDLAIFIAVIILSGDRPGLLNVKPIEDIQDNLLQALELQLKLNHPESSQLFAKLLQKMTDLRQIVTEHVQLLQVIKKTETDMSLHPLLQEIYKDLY

[3] = target: T3, Peroxisome proliferator-activated receptor alpha (Homo sapiens, UniProt Q07869); experiment: Activity at PPARalpha
T3 sequence (Q07869 whole entry): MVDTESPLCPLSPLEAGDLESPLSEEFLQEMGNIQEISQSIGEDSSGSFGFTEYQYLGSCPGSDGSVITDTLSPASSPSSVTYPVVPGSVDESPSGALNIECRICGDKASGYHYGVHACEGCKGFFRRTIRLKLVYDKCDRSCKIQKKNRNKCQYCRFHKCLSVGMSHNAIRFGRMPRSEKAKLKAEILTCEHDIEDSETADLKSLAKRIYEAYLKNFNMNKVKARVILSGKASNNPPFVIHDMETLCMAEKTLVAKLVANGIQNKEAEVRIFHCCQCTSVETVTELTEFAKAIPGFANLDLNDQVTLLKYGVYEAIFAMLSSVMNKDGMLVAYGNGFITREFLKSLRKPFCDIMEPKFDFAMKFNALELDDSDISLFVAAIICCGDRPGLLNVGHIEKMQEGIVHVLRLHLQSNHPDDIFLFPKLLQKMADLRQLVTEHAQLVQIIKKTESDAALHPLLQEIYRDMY

SMILES | EC50 [1] | EC50 [2] | EC50 [3]
CCCC(CCC)(COc1ccc(C(F)(F)F)cc1)CSc1ccc(OCC(=O)O)c(C)c1 | 8.6 nM |  | 
C=C(CNc1ccc(C(F)(F)F)cc1)CSc1ccc(OCC(=O)O)c(C)c1 | > 500 nM | > 1000 nM | > 1000 nM
C=C(COc1ccccc1)CSc1ccc(OCC(=O)O)c(C)c1 |  | > 1000 nM | > 1000 nM
C=C(COc1ccc(OC)cc1)CSc1ccc(OCC(=O)O)c(C)c1 |  | > 1000 nM | > 1000 nM
C=C(COc1ccc(N(C)C)cc1)CSc1ccc(OCC(=O)O)c(C)c1 |  | > 1000 nM | > 1000 nM
C=C(CCc1ccc(C(F)(F)F)cc1)CSc1ccc(OCC(=O)O)c(C)c1 |  | > 1000 nM | > 1000 nM
C=C(COc1ccc(C(F)(F)F)cc1)CSc1ccc(OCC(=O)O)c(Cl)c1 | 46.7 nM | > 1000 nM | > 1000 nM
C=C(COc1ccc(OC(F)(F)F)cc1)CSc1ccc(OCC(=O)O)c(C)c1 | 28.4 nM | > 1000 nM | > 1000 nM
C=C(COc1ccc(C(F)(F)F)cc1)CSc1ccc(OCC(=O)O)c(OC)c1 | > 1000 nM | > 1000 nM | > 1000 nM
C=C(COc1ccc(Cl)cc1)CSc1ccc(OCC(=O)O)c(C)c1 | 65.5 nM | > 1000 nM | > 1000 nM
C=C(COc1ccc(C(F)(F)F)cc1)COc1ccc(OCC(=O)O)c(C)c1 |  | > 1000 nM | > 1000 nM
C=C(COc1ccc(C(F)(F)F)cc1)CSc1ccc(OCC(=O)O)cc1Cl | > 500 nM | > 1000 nM | > 1000 nM
Cc1cc(SC/C(=C/C#N)COc2ccc(C(F)(F)F)cc2)ccc1OCC(=O)O | 35.4 nM |  | 

The remaining lines, values ahead:

EC50 [1] | EC50 [2] | EC50 [3] | SMILES
49.8 nM | > 1000 nM | > 1000 nM | C=C(COc1ccc(Cl)c(Cl)c1)CSc1ccc(OCC(=O)O)c(C)c1
> 1000 nM | > 1000 nM | > 1000 nM | C=C(COc1ccc(C(F)(F)F)cc1)CSc1ccc(OCC(=O)O)c(C(F)(F)F)c1
 | > 1000 nM | > 1000 nM | C=C(COc1ccc(Cl)cc1Cl)CSc1ccc(OCC(=O)O)c(C)c1
 | > 1000 nM | > 1000 nM | C=C(COc1ccc(C(F)(F)F)cc1)CSc1ccc(OCC(=O)O)c(C)c1
69.6 nM |  |  | Cc1cc(SCC(COc2ccc(C(F)(F)F)cc2)=C(F)F)ccc1OCC(=O)O
> 500 nM | > 1000 nM | > 1000 nM | C=C(COc1ccc(Cl)c(C(F)(F)F)c1)CSc1ccc(OCC(=O)O)c(C)c1
 | > 1000 nM | > 1000 nM | C=C(CSc1ccc(C(F)(F)F)cc1)CSc1ccc(OCC(=O)O)c(C)c1
